In ChEMBL document CHEMBL1201862, “PubChem BioAssay data set” (2004):
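96-well plates; 48 h exposure; 5 concentrations. Endpoints by linear interpolation between flanking doses. Not reached: highest tested concentration assigned. GI50 marks 50% less growth.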 The source made the active and inactive calls. Cut-off read from the data, not from the text of the source: active = GI50 up to about 1.1 µM and inactive = higher.

Tests used:
Test in all cases: DTP human tumour cell line panel, 48 h
OVCAR-8 = system: OVCAR-8
NCI-H460 = system: NCI-H460
MOLT-4 = system: MOLT-4
SNB-19 = system: SNB-19
UO-31 = system: UO-31
SK-OV-3 = system: SK-OV-3
SW-620 = system: SW-620
OVCAR-3 = system: OVCAR-3
A549 = system: A549
NCI/ADR-RES = system: NCI/ADR-RES
MDA-N = system: MDA-N
SNB-75 = system: SNB-75
M14 = system: M14
DU-145 = system: DU-145
HOP-92 = system: HOP-92
RPMI-8226 = system: RPMI-8226
786-0 = system: 786-0
HCT-116 = system: HCT-116
TK-10 = system: TK-10

SMILES	GI50 (OVCAR-8)	GI50 (NCI-H460)	GI50 (MOLT-4)	GI50 (SNB-19)	GI50 (UO-31)	GI50 (SK-OV-3)	GI50 (SW-620)	GI50 (OVCAR-3)	GI50 (A549)	GI50 (NCI/ADR-RES)	GI50 (MDA-N)	GI50 (SNB-75)	GI50 (M14)	GI50 (DU-145)	GI50 (HOP-92)	GI50 (RPMI-8226)	GI50 (786-0)	GI50 (HCT-116)	GI50 (TK-10)
COc1ccc2c(c1)CCc1c-2n(CCN2CCCCC2)c2ccc(OC)cc12	92 µM (inactive)	> 100 µM (inactive)	> 10 µM (inactive)	> 100 µM (inactive)	> 100 µM (inactive)	> 100 µM (inactive)	> 100 µM (inactive)	> 100 µM (inactive)	> 100 µM (inactive)	28.2 µM (inactive)	> 100 µM (inactive)	> 100 µM (inactive)	> 100 µM (inactive)	> 100 µM (inactive)	> 10 µM (inactive)	> 100 µM (inactive)	> 100 µM (inactive)	> 100 µM (inactive)	> 100 µM (inactive)
C=C1CC(COc2ccc3c(C)cc(=O)oc3c2)(c2ccccc2)OC1=O (centres undefined)	2.26 µM (inactive)	7.43 µM (inactive)	1.68 µM (inactive)	15.2 µM (inactive)	4.88 µM (inactive)	4.17 µM (inactive)	0.646 µM (active)	2.69 µM (inactive)	11.5 µM (inactive)	2.28 µM (inactive)	1.95 µM (inactive)	6.95 µM (inactive)	1.33 µM (inactive)	2.48 µM (inactive)	0.394 µM (active)	0.292 µM (active)	1.48 µM (inactive)	1.27 µM (inactive)	1.62 µM (inactive)
[N-]=[N+]=NC1C(O)C(CO)OC1n1ccc(N)nc1=O (centres undefined)	55.5 µM (inactive)	235 µM (inactive)	2.3 µM (inactive)	18.2 µM (inactive)	228 µM (inactive)	> 625 µM (inactive)	159 µM (inactive)	68.2 µM (inactive)	219 µM (inactive)	200 µM (inactive)	93.1 µM (inactive)	430 µM (inactive)	26.1 µM (inactive)	212 µM (inactive)	403 µM (inactive)	223 µM (inactive)	118 µM (inactive)	> 172 µM (inactive)	175 µM (inactive)
C=C(CN1CC2C[C@](C(=O)OC)(c3cc4ccccc4[nH]3)C1C(OC)C2OC)S(=O)(=O)c1ccccc1 (some centres undefined)	3.14 µM (inactive)	3.07 µM (inactive)	0.53 µM (active)	10.8 µM (inactive)	1.49 µM (inactive)	3.49 µM (inactive)	3.01 µM (inactive)	3.35 µM (inactive)	3.13 µM (inactive)	4.8 µM (inactive)	2.69 µM (inactive)	2.74 µM (inactive)	2.91 µM (inactive)	4 µM (inactive)	0.729 µM (active)	0.245 µM (active)	2.4 µM (inactive)	2.54 µM (inactive)	4.85 µM (inactive)
Oc1cc(-c2cccc(OCc3ccccc3)c2)nc2cc3c(cc12)OCO3	0.339 µM (active)	0.292 µM (active)	0.334 µM (active)	0.423 µM (active)	0.502 µM (active)	0.342 µM (active)	0.303 µM (active)	0.304 µM (active)	0.871 µM (active)	0.226 µM (active)	0.106 µM (active)	1.05 µM (active)	0.311 µM (active)	0.644 µM (active)	0.578 µM (active)	0.303 µM (active)	0.374 µM (active)	0.346 µM (active)	2.32 µM (inactive)
CC(OP(=O)(O)O)C(N)C(=O)O (centres undefined)	> 100 µM (inactive)	> 100 µM (inactive)	> 100 µM (inactive)	> 100 µM (inactive)	> 100 µM (inactive)	> 100 µM (inactive)	> 100 µM (inactive)	> 100 µM (inactive)	> 100 µM (inactive)	> 100 µM (inactive)	> 100 µM (inactive)	> 100 µM (inactive)	> 100 µM (inactive)	> 100 µM (inactive)	> 100 µM (inactive)	> 100 µM (inactive)	> 100 µM (inactive)	> 100 µM (inactive)	> 100 µM (inactive)
